Measurements reported in article PMC6748984, “The coral Platygyra verweyi exhibits local adaptation to long-term thermal stress through host-specific physiological and enzymatic response” (Scientific Reports, 2019).
Like-named read-outs stand apart in the source and are kept apart here.

What was measured:
[1] = system: T1, MDH (malate dehydrogenase, major isozyme, DEAE peak II) of P. verweyi from WLT; assay: NADH oxidation, absorbance at […] nm; type: biochemical, Platygyra verweyi; details: 100 mM phosphate pH 7.0, about 27 °C, read-out: apparent Km
T1 construct: gene MDH1; native, purified from host tissue extract of symbiotic coral; about 38 kDa by SDS-PAGE, native about 64 kDa, dimer

[2] = system: T2, MDH (malate dehydrogenase, major isozyme, DEAE peak II) of P. verweyi from NPP-OL; assay: NADH oxidation, absorbance at […] nm; type: biochemical, Platygyra verweyi; details: 100 mM phosphate pH 7.0, about 27 °C, read-out: apparent Km
T2 construct: gene MDH1; native, purified from host tissue extract of symbiotic coral; about 39 kDa by SDS-PAGE, native about 67 kDa, dimer

[3] = NADH varied 38-95 µM, OAA fixed (1 mM [sic])
[4] = OAA varied 14-29 µM, NADH fixed (3 mM as printed)

Row | SMILES | Km [1, 3] [µM] | Km [2, 3] [µM] | Km [1, 4] [µM] | Km [2, 4] [µM]
1 | NC(=O)C1=CN([C@@H]2O[C@H](COP(=O)(O)OP(=O)(O)OC[C@H]3O[C@@H](n4cnc5c(N)ncnc54)[C@H](O)[C@@H]3O)[C@@H](O)[C@H]2O)C=CC1 [NADH] | 12.7 | 7.5 |  | 
2 | O=C(O)CC(=O)C(=O)O [oxaloacetate] |  |  | 5.7 | 9.4
